Test results taken from PubChem BioAssay AID1963854 (Molecular Pharmacology Branch, DTP, NCI, 2024).
Values joined by “and” are separate entries in the source; they are usually repeats but may differ in a detail not shown here. Equal values may be shown once.

Tested on: 186277-243-T-J2-PDC complex spheroid viability
Test: Anticancer human tumor 186277-243-T-J2-PDC patient-derived colon adenocarcinoma cell line growth inhibition [POLQ]
Conditions: for viability, T/C: stronger effect = lower value
Protocol: Multicellular complex tumor spheroid response to Polymerase (POL) inhibitors (novobiocin, ART-558, RP6685) in combination with a variety of drugs and investigational agents in selected tumor cell lines
The POL inhibitors (novobiocin, ART-558, and RP6685) were evaluated both individually and in combination with standard of care and investigational anticancer small molecules within a complex spheroid model of solid tumors. . Complex spheroids include a stromal component modeled by human endothelial cells (HUVEC) and fibroblasts modeled by human mesenchymal stem cells (MSCs). The concentration ranges selected for each drug and investigational agent were based upon clinically achievable concentrations if the clinical Cmax of the agent was known.
Compounds. The drugs and investigational agents: novobiocin (NSC847541), ART-558 (NSC835418), RP-6685 (NSC848927), peposertib (NSC802822), ceralasertib (NSC780249), elimusertib (NSC800525), camonsertib (NSC841442), AZD-1390 (NSC803789), olaparib (NSC753686), talazoparib (NSC767125), rucaparib (NSC756644), sotorasib (NSC818433), MRTX-1133 (NSC836407), SN-38 (NSC673596), topotecan (NSC609699), epotoside (NSC141540), doxorubicin (NSC123127), gemcitabine (NSC613327), 5-fluorouracil (NSC19893), paclitaxel (NSC125973), vemurafenib (NSC761431), MSA-2 (NSC828583), SN-011 (NSC837082), adavosertib (NSC754352), prexasertib (NSC758257), carboplatin (NSC241240) and oxaliplatin (NSC266046), were obtained from the National Cancer Institute (NCI) Developmental Therapeutics Program Chemical Repository (21). The FDA-approved anticancer drug set is available from the Developmental Therapeutics Program at https://dtp.cancer.gov/organization/dscb/obtaining/. […] The stock solutions were prepared in dimethyl sulfoxide (DMSO, Sigma-Aldrich, St. Louis, MO, cat. D2650), except for the platinum compounds which were prepared in saline (Quality Biological, Gaithersburg, MD, cat. 114-055-101), at 800-fold the tested concentration and stored at -70 degrees C prior to their use. All drugs and investigational agents were tested over a range starting from a high concentration at or near the clinical Cmax and decreasing in half-log increments. If the clinical Cmax for an agent had not been determined, the highest concentration tested was 10 microM, except for SN-38, which was tested at a high concentration of 1 microM.
Cell Culture. All cells were maintained in an incubator at 37 degrees C and 5% CO2 with 95% humidity. The PDC lines were cultured according to standard operating procedures established by the NCI PDMR (https://pdmr.cancer.gov). Table 3 of the manuscript, lists the cell lines along with the number of the three cell types plated to form the mct-spheroids and media for tumor cell growth. After thawing, all PDC lines, except 997537-175-T-J1-PDC and 415267-285-R-J2-PDC, were cultured in Matrigel-coated flasks prepared with a working solution of 1X Ham's F-12 nutrient mix, without supplementation (Thermo Fisher Scientific, cat. 11765054), 100 U/mL penicillin-streptomycin (Thermo Fisher Scientific, cat. 15140122), and 2.5% Matrigel (Corning Inc., Corning, NY, cat. 354248) for the first three passages. The two PDC lines 997537-175-T-J1-PDC and 415267-285-R-J2-PDC were cultured on uncoated flasks. The 857933-349-R-J2-PDC line was cultured in 6C/Colon 1B media containing advanced DMEM/F-12 (Thermo Fisher Scientific, cat. 12634028), 10 mM HEPES (Thermo Fisher Scientific, cat. 15630080), 1X GlutaMAX supplement (Thermo Fisher Scientific, cat. 35050061), 0.1 mg/mL primocin (InvivoGen, San Diego, CA, cat. ant-pm-2), 10% defined fetal bovine serum, heat inactivated (HyClone Laboratories Inc., Logan, UT, cat. SH30070.03HI), 50% L-WRN conditioned media (ATCC, cat. CRL-3276), 1.25 mM N-Acetyl-L-cysteine (Sigma-Aldrich, cat. A9165), 10 mM nicotinamide (Sigma-Aldrich, cat. N0636), 1X B-27 supplement (Thermo Fisher Scientific, cat. 17504044), 1X N-2 supplement (Thermo Fisher Scientific, cat. […]
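Also: spheroids exposed to compounds for seven days.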
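For viability, T/C in this document: 100% = DMSO vehicle control viability.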

In the case of CC1COCCN1c1cc(C2(S(C)(=N)=O)CC2)nc(-c2ccnc3[nH]ccc23)n1 (centres undefined), the viability, T/C (compound 0.0316 µM) is reported as 97.6% and 101% and 100%, the viability, T/C (compound 0.1 µM) is reported as 110% and 107% and 101% and the viability, T/C (compound 0.316 µM) is reported as 102% and 106% and 112%. The viability, T/C (compound 1 µM) was 38% and 82.3% and 42.9%, the viability, T/C (compound 3.16 µM) was 7.52% and 14% and 6.48% and the viability, T/C (compound 10 µM) was 5.94% and 9.28% and 6.22%. For the same compound, the IC50 (curve of compound) was 0.805 µM and 1.72 µM and 0.876 µM.
CCc1cc2c(N3CCc4c(cc(Cn5ccnc5)cc4-c4cn(C)nc4C(F)(F)F)C3=O)cc(C)nc2c(OC)n1 + COC1C(OC(N)=O)C(O)C(Oc2ccc3c(O)c(NC(=O)c4ccc(O)c(CC=C(C)C)c4)c(=O)oc3c2C)OC1(C)C was tested, and the IC50 (curve of first compound, second compound 0.0316 µM) was greater than 10 µM, the IC50 (curve of first compound, second compound 0.1 µM) was greater than 10 µM and the IC50 (curve of first compound, second compound 0.316 µM) was greater than 10 µM. The IC50 (curve of first compound, second compound 1 µM) was greater than 10 µM, the IC50 (curve of first compound, second compound 3.16 µM) was greater than 10 µM and the IC50 (curve of first compound, second compound 10 µM) was greater than 10 µM. It also gave a viability, T/C (second compound 0.0316 µM, first compound 0.0316 µM) of 100%, a viability, T/C (second compound 0.0316 µM, first compound 0.1 µM) of 91.7% and a viability, T/C (second compound 0.0316 µM, first compound 0.316 µM) of 101%. For the same compound, the viability, T/C (second compound 0.0316 µM, first compound 1 µM) was 80.4%, the viability, T/C (second compound 0.0316 µM, first compound 3.16 µM) was 80.5% and the viability, T/C (second compound 0.0316 µM, first compound 10 µM) was 77.4%. It also gave a viability, T/C (second compound 0.1 µM, first compound 0.0316 µM) of 88.1%, a viability, T/C (second compound 0.1 µM, first compound 0.1 µM) of 92.2% and a viability, T/C (second compound 0.1 µM, first compound 0.316 µM) of 92.7%. The viability, T/C (second compound 0.1 µM, first compound 1 µM) was 96.9%, the viability, T/C (second compound 0.1 µM, first compound 3.16 µM) was 100% and the viability, T/C (second compound 0.1 µM, first compound 10 µM) was 80.4%. The viability, T/C (second compound 0.316 µM, first compound 0.0316 µM) was 95.6%, the viability, T/C (second compound 0.316 µM, first compound 0.1 µM) was 101% and the viability, T/C (second compound 0.316 µM, first compound 0.316 µM) was 101%. The viability, T/C (second compound 0.316 µM, first compound 1 µM) was 93.5%, the viability, T/C (second compound 0.316 µM, first compound 3.16 µM) was 85.3% and the viability, T/C (second compound 0.316 µM, first compound 10 µM) was 84.4%. It also gave a viability, T/C (second compound 1 µM, first compound 0.0316 µM) of 99.1%, a viability, T/C (second compound 1 µM, first compound 0.1 µM) of 101% and a viability, T/C (second compound 1 µM, first compound 0.316 µM) of 111%. The viability, T/C (second compound 1 µM, first compound 1 µM) was 104%, the viability, T/C (second compound 1 µM, first compound 3.16 µM) was 104% and the viability, T/C (second compound 1 µM, first compound 10 µM) was 73.7%. The viability, T/C (second compound 3.16 µM, first compound 0.0316 µM) was 93.4%, the viability, T/C (second compound 3.16 µM, first compound 0.1 µM) was 96.6% and the viability, T/C (second compound 3.16 µM, first compound 0.316 µM) was 86.3%. For the same compound, the viability, T/C (second compound 3.16 µM, first compound 1 µM) was 86.2%, the viability, T/C (second compound 3.16 µM, first compound 3.16 µM) was 98.9% and the viability, T/C (second compound 3.16 µM, first compound 10 µM) was 72.4%. The viability, T/C (second compound 10 µM, first compound 0.0316 µM) was 96.5%, the viability, T/C (second compound 10 µM, first compound 0.1 µM) was 102% and the viability, T/C (second compound 10 µM, first compound 0.316 µM) was 104%. It also gave a viability, T/C (second compound 10 µM, first compound 1 µM) of 107%, a viability, T/C (second compound 10 µM, first compound 3.16 µM) of 99.2% and a viability, T/C (second compound 10 µM, first compound 10 µM) of 86.1%.
